Each structure is given as a SMILES string. pIC50: −log10 of the molar value. Some results are limits rather than exact numbers.

The target in the experiment is BRD4 (Homo sapiens, UniProt O60885). Kind of experiment: Time Resolved Fluorescence Resonance Energy Transfer (TR-FRET) binding assay, BRD4. The conditions noted are these: one of the FRET assays described; read-out: FRET BRD4 IC50.

Take `Cc1nnn(C)c1-c1cnc2c3ccc(C(C)(C)O)cc3n(C(CC3CC3)C3CCOCC3)c2c1` (single isomer, unassigned) [Example 395]: the pIC50 is above 8.30.
In the case of `Cc1nnn(C)c1-c1cnc2c3ccc(C(C)(C)O)cc3n(C(c3ccc(Cl)cc3)C3CCOCC3)c2c1` (single isomer, unassigned) [Example 398], the pIC50 was above 8.30.
For `Cc1nnn(C)c1-c1cnc2c3ccc(C(C)(C)O)cc3n(C(c3ccc(Cl)cc3)C3CCOCC3)c2c1` (single isomer, unassigned) [Example 399] the value was above 8.30.
On to `Cc1nnn(C)c1-c1cnc2c3ccc(C(C)(C)O)cc3n(C(c3cccc(Cl)c3)C3CCOCC3)c2c1` (single isomer, unassigned) [Example 400], for which the pIC50 was above 8.30.
For `Cc1nnn(C)c1-c1cnc2c3ccc(C(C)(C)O)cc3n(C(c3cccc(Cl)c3)C3CCOCC3)c2c1` (single isomer, unassigned) [Example 401] the value was above 8.30; for `Cc1nnn(C)c1-c1cnc2c3ccc(C(C)(C)O)cc3n(C(c3ccccc3Cl)C3CCOCC3)c2c1` (single isomer, unassigned) [Example 402], above 8.30; for `Cc1nnn(C)c1-c1cnc2c3ccc(C(C)(C)O)cc3n(C(c3ccccc3Cl)C3CCOCC3)c2c1` (single isomer, unassigned) [Example 403], above 8.30.
For `Cc1nnn(C)c1-c1cnc2c3ccc(C(C)(O)C4CC4)cc3n([C@H](c3ccccc3)C3CCOCC3)c2c1` (single isomer, unassigned) [Example 422], the negative logarithm of the IC50 (pIC50) was above 8.30.
For `Cc1nnn(C)c1-c1cnc2c3ccc(C(C)(O)C4CC4)cc3n([C@H](c3ccccc3)C3CCOCC3)c2c1` (single isomer, unassigned) [Example 423] the value was above 8.30; for `Cc1nnn(C)c1-c1cnc2c3ccc(C(C)(O)C4CC4)c(F)c3n([C@H](c3ccccc3F)C3CCOCC3)c2c1` (single isomer, unassigned) [Example 435], above 8.30; for `[2H]C([2H])([2H])c1nnn(C)c1-c1cnc2c3ccc(C(C)(O)C4CC4)c(F)c3n([C@H](c3ccccc3F)C3CCOCC3)c2c1` (single isomer, unassigned) [Example 438], above 8.30.
Then `Cc1nnn(C)c1-c1cnc2c3ccc(C(C)(O)C(F)(F)F)c(F)c3n([C@H](c3ccccc3)C3CCOCC3)c2c1` (single isomer, unassigned) [Example 441], with above 8.30.
Then `Cc1nnn(C)c1-c1cnc2c3cc(F)c(C(C)(O)C4CC4)cc3n([C@H](c3ccccc3)C3CCOCC3)c2c1` (single isomer, unassigned) [Example 443], with above 8.30.
As to `Cc1nnn(C)c1-c1cnc2c3cc(F)c(C(C)(O)C4CC4)cc3n([C@H](c3ccccc3)C3CCOCC3)c2c1` (single isomer, unassigned) [Example 444], the pIC50 is above 8.30.
For `Cc1nnn(C)c1-c1cnc2c3cc(F)c(C(C)(O)C4CC4)cc3n([C@H](c3ccccc3F)C3CCOCC3)c2c1` (single isomer, unassigned) [Example 447] the value was above 8.30; for `Cc1nnn(C)c1-c1cnc2c3cc(F)c(C(C)(O)C4CC4)cc3n([C@H](c3ccccc3F)C3CCOCC3)c2c1` (single isomer, unassigned) [Example 448], above 8.30.
Then `Cc1nnn(C)c1-c1cnc2c3cc(F)c(C(C)(O)C4CC4)c(F)c3n([C@H](c3ccccc3)C3CCOCC3)c2c1` (single isomer, unassigned) [Example 449], with above 8.30; and `Cc1nnn(C)c1-c1cnc2c3cc(F)c(C(C)(O)C4CC4)c(F)c3n([C@H](c3ccccc3)C3CCOCC3)c2c1` (single isomer, unassigned) [Example 450], with above 8.30; and `[2H]C([2H])([2H])c1nnn(C)c1-c1cnc2c3ccc(C(C)(C)O)c(F)c3n(C(c3ncccc3F)C3CCC(F)(F)CC3)c2c1` (single isomer, unassigned) [Example 456], with above 8.30.
For `[2H]C([2H])([2H])c1nnn(C)c1-c1cnc2c3ccc(C(C)(C)O)cc3n(C(c3cc(Cl)ccn3)C3CCOCC3)c2c1` (single isomer, unassigned) [Example 457] the value was above 8.30.
On to `[2H]C([2H])([2H])c1nnn(C)c1-c1cnc2c3ccc(C(C)(C)O)c(F)c3n(C(c3ncccc3F)C3CCOCC3)c2c1` (single isomer, unassigned) [Example 458], for which the negative-log IC50 (pIC50) is above 8.30.
Then `Cc1nnc(C)n1-c1cnc2c3ccc(C(C)(C)O)cc3n(C(c3ccccc3)C3CCOCC3)c2c1` (stereo in doubt) [Example 357, 2-[3-(Dimethyl-4H-1,2,4-triazol-4-yl)-5-[(R)-oxan-4-yl(phenyl)methyl]-5H-pyrido[3,2-b]indol-7-yl]propan-2-ol], with above 8.30; and `CCC(CC)n1c2cc(C(C)(C)O)ccc2c2ncc(-c3c(C)noc3C)cc21` [Example 4], with above 7.60.
Then `COCC(c1ccccc1)n1c2cc(C(C)(C)O)ccc2c2ncc(-c3c(C)noc3C)cc21` (stereo not drawn) [Example 5], with above 8.30; and `Cc1noc(C)c1-c1cnc2c3ccc(C(C)(C)O)cc3n([C@@H](CCC(F)(F)F)c3ccccc3)c2c1` [Example 9], with above 8.30.
`Cc1noc(C)c1-c1cnc2c3ccc(C(C)(C)O)cc3n([C@H](CCC(F)(F)F)c3ccccc3)c2c1` [Example 10]: the negative logarithm of the IC50 (pIC50) was above 7.60.
For `Cc1noc(C)c1-c1cnc2c3ccc(C(C)(C)O)cc3n([C@H](c3ccccc3)C3CC3)c2c1` [Example 11] the value was above 7.60.
With `Cc1noc(C)c1-c1cnc2c3ccc(C(C)(C)O)cc3n([C@@H](c3ccccc3)C3CC3)c2c1` [Example 12], the pIC50 is above 7.60.
Turning to `Cc1noc(C)c1-c1cnc2c3ccc(C(C)(C)O)cc3n([C@H](c3ccccc3)C3CCC3)c2c1` [Example 13], the pIC50 was above 8.30.
Then `Cc1noc(C)c1-c1cnc2c3ccc(C(C)(C)O)cc3n([C@@H](c3ccccc3)C3CCC3)c2c1` [Example 14], with above 7.60; and `Cc1noc(C)c1-c1cnc2c3ccc(C(C)(C)O)cc3n([C@H](c3ccc(F)cc3)C3CCC3)c2c1` [Example 15], with above 8.30.
Then `Cc1noc(C)c1-c1cnc2c3ccc(C(C)(C)O)cc3n([C@@H](c3ccc(F)cc3)C3CCC3)c2c1` [Example 16], with above 7.60; and `Cc1noc(C)c1-c1cnc2c3ccc(C(C)(C)O)cc3n([C@H](c3ccc(F)cc3)C3CCOC(C)(C)C3)c2c1` (stereo partly drawn) [Example 17], with above 7.60.
For `Cc1noc(C)c1-c1cnc2c3ccc(C(C)(C)O)cc3n([C@@H](c3ccc(F)cc3)C3CCOC(C)(C)C3)c2c1` (stereo partly drawn) [Example 18] the value was above 5.82; for `Cc1noc(C)c1-c1cnc2c3ccc(C(C)(C)O)cc3n([C@H](CCC(F)(F)F)c3cscn3)c2c1` [Example 19], above 8.30.
Regarding `Cc1noc(C)c1-c1cnc2c3ccc(C(C)(C)O)cc3n([C@@H](CCC(F)(F)F)c3cscn3)c2c1` [Example 20], the negative logarithm of the IC50 (pIC50) is above 7.60.
Then `Cc1noc(C)c1-c1cnc2c3ccc(C(C)(C)O)cc3n([C@H](c3ccccn3)C3CCOCC3)c2c1` [Example 21], with above 8.30.
For `Cc1noc(C)c1-c1cnc2c3ccc(C(C)(C)O)cc3n([C@@H](c3ccccn3)C3CCOCC3)c2c1` [Example 22] the value was above 8.30; for `Cc1noc(C)c1-c1cnc2c3ccc(C(C)(C)O)cc3n([C@@H](CCC(F)(F)F)c3ccccn3)c2c1` [Example 23], above 8.30; for `Cc1noc(C)c1-c1cnc2c3ccc(C(C)(C)O)cc3n([C@H](CCC(F)(F)F)c3ccccn3)c2c1` [Example 24], above 5.82.
For `Cc1noc(C)c1-c1cnc2c3ccc(C(C)(C)O)cc3n(C(C3CCC3)C3CCC3)c2c1` [Example 31, 2-[5-(Dicyclobutylmethyl)-3-(dimethyl-1,2-oxazol-4-yl)-5H-pyrido[3,2-b]indol-7-yl]propan-2-ol] the value was above 8.30.
As to `Cc1noc(C)c1-c1cnc2c3ccc(C(=O)O)cc3n(C(c3ccccc3)C3CCOCC3)c2c1` (stereo not drawn) [Example 44, 3-(Dimethyl-1,2-oxazol-4-yl)-5-[oxan-4-yl(phenyl)methyl]-5H-pyrido[3,2-b]indole-7-carboxylic acid], the pIC50 was above 8.30.
For `Cc1noc(C)c1-c1cnc2c3ccc(C(=O)O)cc3n(C(c3ccccc3)c3ccccc3)c2c1` [Example 45, 3-(Dimethyl-1,2-oxazol-4-yl)-5-(diphenylmethyl)-5H-pyrido[3,2-b]indole-7-carboxylic acid] the value was above 8.30.
For `Cc1noc(C)c1-c1cnc2c3ccc(C(C)(C)O)cc3n(Cc3ccccc3)c2c1` [Example 46, 2-[5-Benzyl-3-(dimethyl-1,2-oxazol-4-yl)-5H-pyrido[3,2-b]indol-7-yl]propan-2-ol] the value was above 5.82; for `Cc1noc(C)c1-c1cnc2c3ccc(C(C)(C)O)cc3n(CC3CCOCC3)c2c1` [Example 47], above 7.60.
Consider `Cc1noc(C)c1-c1cnc2c3ccc(C(C)(C)O)cc3n(Cc3ccc(F)cc3)c2c1` [Example 48], for which the pIC50 is above 7.60.
For `Cc1noc(C)c1-c1cnc2c3ccc(C(C)(C)O)cc3n(CC3CCC(F)(F)CC3)c2c1` [Example 49] the value was above 8.30.
For `Cc1noc(C)c1-c1cnc2c3ccc(C(F)F)cc3n(Cc3ccccc3)c2c1` [Example 50, 4-[5-Benzyl-7-(difluoromethyl)-5H-pyrido[3,2-b]indol-3-yl]-3,5-dimethyl-1,2-oxazole] the value was above 5.82.
For `Cc1noc(C)c1-c1cnc2c3ccccc3n(Cc3ccccc3)c2c1` [Example 51, 4-(5-Benzyl-5H-pyrido[3,2-b]indol-3-yl)-3,5-dimethyl-1,2-oxazole] the value was above 5.82; for `Cc1noc(C)c1-c1cnc2c3ccc(S(C)(=O)=O)cc3n(Cc3ccccc3)c2c1` [Example 52, 4-(5-Benzyl-7-(methylsulfonyl)-5H-pyrido[3,2-b]indol-3-yl)-3,5-dimethyl-1,2-oxazole], above 7.60; for `Cc1noc(C)c1-c1cnc2c3c(C(C)(C)O)cccc3n(Cc3ccccc3)c2c1` [Example 53, 2-[5-Benzyl-3-(dimethyl-1,2-oxazol-4-yl)-5H-pyrido[3,2-b]indol-9-yl]propan-2-ol], above 5.82.

The record behind these values is patent US10112941B2, “Tricyclic compounds as anticancer agents” (BRISTOL-MYERS SQUIBB COMPANY, priority 2013, dated 2018).
